# Laboratory results published in patent US10017480B2, “Compounds having a selective PDE4D inhibiting activity” (UNIVERSITÂ DEGLI STUDI DI GENOVA, priority 2014, dated 2018).
# Marks after values point to notes of the source that are not given here.
# Experiments:
# PDE4D3 = PDE4D3 (Homo sapiens, UniProt Q08499); assay: PDE4D3 enzyme inhibition (IMAP); format: biochemical; conditions: for PDE4D3 % inib at 10 μM: in duplicate; for IC50: five concentrations 10^−8-10^−4 M
# Experimental: (§1) Compound's evaluation on PDE4D3, PDE4A4, PDE4B2 and PDE4C2 enzyme assays were performed by Scottish Biomedical (Glasgow, Scotland, UK) using recombinant human PDE enzymes expressed in a baculoviral system. The preliminary screening assays were performed by the IMAP technology (Molecular Devices), which is based on the high affinity binding of phosphate by immobilized metal coordination complexes on nanoparticles. The binding reagent complexes with phosphate groups on nucleotide monophosphate generated from cyclic nucleotides (cAMP) through phosphodiesterases. With fluorescence polarization detection, binding causes a change in the rate of the molecular motion of the phosphate bearing molecule and results in an increase in the fluorescence polarization value observed for the fluorescent label attached to the substrate. […] All compounds were solved in DMSO at 10^−2 M concentration and then diluted with water to the final suitable concentrations. All synthesized compounds were tested preliminary on PDE4D3 at 10^−5 M concentration, in duplicate. Results are expressed as a percent inhibition of control activity (see table 1).
# IC50 values are reported at μM concentration in table 1. […] The results are reported (as percent of inhibition at 10 μM concentration) in Table 1.
# PDE4A4 = PDE4A4 (Homo sapiens, UniProt P27815); assay: PDE4A4 enzyme inhibition (IMAP); format: biochemical
# Sequence of PDE4A4 (P27815 whole entry): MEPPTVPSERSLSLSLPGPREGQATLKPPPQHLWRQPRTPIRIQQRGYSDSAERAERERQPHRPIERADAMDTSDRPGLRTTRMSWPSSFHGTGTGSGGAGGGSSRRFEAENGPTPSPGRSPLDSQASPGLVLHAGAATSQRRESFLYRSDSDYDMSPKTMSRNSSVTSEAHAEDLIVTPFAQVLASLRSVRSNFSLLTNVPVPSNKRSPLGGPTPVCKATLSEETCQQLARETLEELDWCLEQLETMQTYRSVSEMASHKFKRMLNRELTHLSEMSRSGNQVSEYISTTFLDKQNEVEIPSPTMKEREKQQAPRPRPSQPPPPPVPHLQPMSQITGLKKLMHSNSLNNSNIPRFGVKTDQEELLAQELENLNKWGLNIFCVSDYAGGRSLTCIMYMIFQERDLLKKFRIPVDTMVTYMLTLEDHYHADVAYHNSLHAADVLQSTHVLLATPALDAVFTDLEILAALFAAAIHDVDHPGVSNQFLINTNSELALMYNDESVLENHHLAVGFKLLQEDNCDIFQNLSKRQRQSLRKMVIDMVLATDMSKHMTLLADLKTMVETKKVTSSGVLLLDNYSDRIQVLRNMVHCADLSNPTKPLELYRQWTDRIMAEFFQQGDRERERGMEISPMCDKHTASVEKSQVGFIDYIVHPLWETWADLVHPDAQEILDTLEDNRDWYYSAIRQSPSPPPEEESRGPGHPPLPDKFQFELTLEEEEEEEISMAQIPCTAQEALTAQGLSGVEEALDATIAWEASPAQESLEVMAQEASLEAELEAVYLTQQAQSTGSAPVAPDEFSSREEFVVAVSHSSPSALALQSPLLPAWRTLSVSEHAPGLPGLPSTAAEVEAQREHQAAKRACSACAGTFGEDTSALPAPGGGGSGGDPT
# Experimental: as §1
# (§2) The IC50 values obtained for the reference compounds are within accepted limits of historic averages obtained (0.5 log unit). IC50 values are reported at μM concentration in table 1. […] The results are reported (as percent of inhibition at 10 μM concentration) in Table 1.
# PDE4B2 = molecular target: T1, PDE4B2 (Homo sapiens, UniProt Q07343); assay: PDE4B2 enzyme inhibition (IMAP); format: biochemical
# T1 construct: purchased Scottish Biomedical (Glasgow, Scotland, UK); host or cells: baculoviral system
# T1 sequence (Q07343 1-564 isoform Q07343-2): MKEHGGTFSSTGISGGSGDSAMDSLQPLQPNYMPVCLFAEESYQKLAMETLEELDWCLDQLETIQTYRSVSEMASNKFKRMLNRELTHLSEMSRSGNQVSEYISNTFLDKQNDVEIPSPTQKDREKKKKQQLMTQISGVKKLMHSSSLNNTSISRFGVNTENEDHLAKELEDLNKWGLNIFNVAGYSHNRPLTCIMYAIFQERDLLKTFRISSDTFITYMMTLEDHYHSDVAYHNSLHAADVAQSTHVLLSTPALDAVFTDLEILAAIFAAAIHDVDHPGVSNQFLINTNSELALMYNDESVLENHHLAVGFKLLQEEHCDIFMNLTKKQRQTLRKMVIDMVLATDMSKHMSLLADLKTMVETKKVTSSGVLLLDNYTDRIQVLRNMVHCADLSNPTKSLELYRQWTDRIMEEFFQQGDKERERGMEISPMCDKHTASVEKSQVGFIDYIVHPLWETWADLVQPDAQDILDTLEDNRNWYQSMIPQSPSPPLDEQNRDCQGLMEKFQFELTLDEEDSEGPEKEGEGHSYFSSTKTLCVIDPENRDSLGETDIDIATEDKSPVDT
# Experimental: as §1, §2
# PDE4C2 = molecular target: T2, PDE4C2 (Homo sapiens, UniProt Q08493); assay: PDE4C2 enzyme inhibition (IMAP); format: biochemical
# T2 construct: purchased Scottish Biomedical (Glasgow, Scotland, UK); host or cells: baculoviral system
# T2 sequence (Q08493 107-712): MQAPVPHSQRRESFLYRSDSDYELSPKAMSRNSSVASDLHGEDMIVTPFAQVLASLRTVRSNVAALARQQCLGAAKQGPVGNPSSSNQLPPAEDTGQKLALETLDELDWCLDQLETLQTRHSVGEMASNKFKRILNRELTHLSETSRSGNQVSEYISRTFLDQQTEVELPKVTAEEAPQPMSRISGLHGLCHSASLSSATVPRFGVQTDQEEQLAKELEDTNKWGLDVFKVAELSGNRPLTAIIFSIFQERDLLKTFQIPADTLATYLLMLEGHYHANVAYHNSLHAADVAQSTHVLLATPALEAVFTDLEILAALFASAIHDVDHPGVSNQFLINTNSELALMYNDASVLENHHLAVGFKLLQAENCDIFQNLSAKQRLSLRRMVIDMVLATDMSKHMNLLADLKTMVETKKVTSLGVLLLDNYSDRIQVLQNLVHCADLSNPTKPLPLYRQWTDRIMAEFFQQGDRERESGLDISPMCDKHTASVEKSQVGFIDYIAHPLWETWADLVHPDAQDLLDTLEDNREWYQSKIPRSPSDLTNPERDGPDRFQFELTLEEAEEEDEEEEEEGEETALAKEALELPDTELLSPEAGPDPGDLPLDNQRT
# Experimental: as §1, §2
# PDE4D1 = PDE4D1 (Homo sapiens, UniProt Q08499); assay: PDE4D1 enzyme inhibition (IMAP); format: biochemical
# Sequence of PDE4D1 (Q08499 1-584 isoform Q08499-4): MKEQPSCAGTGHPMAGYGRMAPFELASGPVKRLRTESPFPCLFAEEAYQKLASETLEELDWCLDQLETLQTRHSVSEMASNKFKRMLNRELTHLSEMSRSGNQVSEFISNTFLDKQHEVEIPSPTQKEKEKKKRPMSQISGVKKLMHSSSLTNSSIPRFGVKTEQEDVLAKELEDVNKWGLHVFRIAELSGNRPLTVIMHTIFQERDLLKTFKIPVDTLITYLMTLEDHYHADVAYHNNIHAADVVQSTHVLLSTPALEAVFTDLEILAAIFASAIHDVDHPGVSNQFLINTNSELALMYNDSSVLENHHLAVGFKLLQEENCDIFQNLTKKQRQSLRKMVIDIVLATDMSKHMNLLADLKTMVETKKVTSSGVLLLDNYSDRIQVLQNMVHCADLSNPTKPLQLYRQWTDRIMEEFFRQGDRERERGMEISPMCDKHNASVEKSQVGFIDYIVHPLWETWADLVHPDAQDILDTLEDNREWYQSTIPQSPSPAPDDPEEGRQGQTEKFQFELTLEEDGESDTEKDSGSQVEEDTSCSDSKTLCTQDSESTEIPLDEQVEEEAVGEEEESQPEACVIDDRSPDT
# PDE4D2 = PDE4D2 (Homo sapiens, UniProt Q08499); assay: PDE4D2 enzyme inhibition (IMAP); format: biochemical
# Sequence of PDE4D2 (Q08499 303-809 limits assumed): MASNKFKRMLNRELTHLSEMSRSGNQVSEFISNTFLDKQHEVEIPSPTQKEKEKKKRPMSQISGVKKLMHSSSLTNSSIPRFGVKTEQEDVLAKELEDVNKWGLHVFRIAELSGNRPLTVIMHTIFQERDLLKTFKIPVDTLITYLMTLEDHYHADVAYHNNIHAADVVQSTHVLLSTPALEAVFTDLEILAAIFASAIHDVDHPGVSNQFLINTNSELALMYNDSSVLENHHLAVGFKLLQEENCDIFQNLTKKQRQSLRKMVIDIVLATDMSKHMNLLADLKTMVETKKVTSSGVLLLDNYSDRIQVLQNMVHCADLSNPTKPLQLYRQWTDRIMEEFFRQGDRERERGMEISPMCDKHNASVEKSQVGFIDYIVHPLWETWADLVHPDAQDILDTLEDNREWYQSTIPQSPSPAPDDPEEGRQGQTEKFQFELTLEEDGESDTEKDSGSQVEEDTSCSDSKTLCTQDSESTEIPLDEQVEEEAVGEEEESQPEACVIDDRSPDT
# [1] = Cytotoxicity, lactate-dehydrogenase release; format: cell-based; conditions: human, HTLA human neuronal cells
# Experimental: To evaluate the preliminary toxic profile of the molecule XVIIIa, we performed cytotoxicity and genotoxicity assays on human neuronal cells (HTLA). For the cytotoxic potential, we analyzed the lactate-dehydrogenase release in cells exposed for 24 hours to high concentrations (100 μM) of XVIIIa or GEBR-7b (lead compound—Bruno et al, Br. J. Pharm., 2011, 164:2054).
# HTLA cells = assay: Genotoxicity, Western blot of γ-H2AX; format: cell-based, human; conditions: 100 μM
# Description: To evaluate the genotoxic potential of XVIIIa and GEBR-7b, we analyzed the phosphorylation of the chromatin-bound histone H2AX (γ-H2AX), which is a quantitative marker for the DNA damage response at the site of double-strand breaks.
# The H2AX signal represents the internal loading control.
# [2] = system: spatial object memory performance; assay: OLT dose-response experiment; format: in vivo; conditions: for d2 (discrimination performance): 24 h interval, mean (SEM)
# spatial working memory = assay: Y-maze continuous alternation task; format: in vivo; conditions: y-maze 6 min, vehicle 60.36
# Experimental: Working memory function is given by the percentage of alternations made while exploring the y-maze for 6 min. No animals were excluded from the statistical analysis.
# One-sample t-tests were performed to compare every condition to 50% alternations, i.e. chance level. […] FIG. 7 gives a graphical overview of the Y-maze alternation performance.
# [3] = system: α2-adrenoceptor-mediated anesthesia; assay: Ketamine/xylazine induced α2-adrenoceptor-mediated anesthesia test (emesis surrogate); format: in vivo, mice; conditions: for Time anesthetized: relative to vehicle (set at 100%)
# Experimental: A shorter anesthesia time than that of the vehicle condition would implicate emetic-like effects. Anesthesia time was calculated relatively to the vehicle condition, which itself was set at 100%, to control for repeated exposure to the test.
# [4] = system: forskolin (FSK)-induced cAMP in neuronal cultured cells; assay: In vitro cAMP-enhancing potential (EIA); conditions: 100 μM, without FSK
# [5] = Pharmacokinetic analysis, plasma and brain; conditions: male BALB/c mice, 10 mg/kg subcutaneously
# Sequence of PDE4D3 (Q08499 1-673 isoform Q08499-2): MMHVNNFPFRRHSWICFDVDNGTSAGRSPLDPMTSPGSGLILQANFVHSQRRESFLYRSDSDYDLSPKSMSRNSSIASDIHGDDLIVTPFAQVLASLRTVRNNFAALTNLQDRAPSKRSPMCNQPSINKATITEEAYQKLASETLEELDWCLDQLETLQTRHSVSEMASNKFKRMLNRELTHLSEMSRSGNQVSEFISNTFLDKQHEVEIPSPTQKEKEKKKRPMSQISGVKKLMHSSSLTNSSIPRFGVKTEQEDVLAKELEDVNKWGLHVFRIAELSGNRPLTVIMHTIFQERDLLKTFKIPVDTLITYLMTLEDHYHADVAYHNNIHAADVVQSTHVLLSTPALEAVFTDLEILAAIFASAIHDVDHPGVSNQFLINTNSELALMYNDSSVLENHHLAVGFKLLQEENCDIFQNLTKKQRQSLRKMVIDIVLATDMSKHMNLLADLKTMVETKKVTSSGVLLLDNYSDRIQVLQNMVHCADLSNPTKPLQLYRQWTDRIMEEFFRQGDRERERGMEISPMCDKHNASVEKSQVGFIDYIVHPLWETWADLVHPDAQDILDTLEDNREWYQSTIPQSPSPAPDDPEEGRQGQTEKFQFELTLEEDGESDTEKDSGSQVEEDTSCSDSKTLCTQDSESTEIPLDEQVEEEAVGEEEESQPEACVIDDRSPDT
structure (smiles),measurement,setting,value
"COc1ccc(C2=NOC(CC(=O)N3CC(C)OC(C)C3)C2)cc1OC1CCCC1 (centres unmarked) [XIVb, 4-({3-[3-(Cyclopentiloxy)-4-methoxyphenyl]-4,5-dihydroisoxazol-5-yl}acetil) 2,6-dimethylmorpholine]",PDE4D3 % inib at 10 μM,PDE4D3,51%
same,IC50,PDE4D3,5580 nM
same,PDE4A4 % inib at 10 μM,PDE4A4,45%
same,PDE4B2 % inib at 10 μM,PDE4B2,27%
same,PDE4C2 % inib at 10 μM,PDE4C2,23%
same,melting point,,104 to 105 °C
"COc1ccc(C2=NOC(CC(=O)N3CCCC3)C2)cc1OC1CCCC1 (centres unmarked) [XIVd, 3-[3-(Cyclopentyloxy)-4-methoxyphenyl]-5-(2-oxo-2-pyrrolidin-1-ylethyl)-4,5-dihydroisoxazole]",PDE4D3 % inib at 10 μM,PDE4D3,57%
same,IC50,PDE4D3,1220 nM
same,PDE4A4 % inib at 10 μM,PDE4A4,66%
same,PDE4B2 % inib at 10 μM,PDE4B2,59%
same,PDE4C2 % inib at 10 μM,PDE4C2,47%
"COc1ccc(C2=NOC(CC(=O)N(CCO)CCO)C2)cc1OC1CCCC1 (centres unmarked) [XIVg, 2-{3-[3-(Cyclopentyloxy)-4-methoxyphenyl]-4,5-dihydroisoxazol-5-yl}-N,N-bis(2-hydroxyethyl)acetamide]",PDE4D3 % inib at 10 μM,PDE4D3,65%
same,IC50,PDE4D3,1110 nM
same,PDE4A4 % inib at 10 μM,PDE4A4,69%
same,PDE4B2 % inib at 10 μM,PDE4B2,68%
same,PDE4C2 % inib at 10 μM,PDE4C2,40%
same,melting point,,136 to 138 °C
"COc1ccc(-c2ccn(CC(O)CN3CC(C)OC(C)C3)n2)cc1OC1CCCC1 (centres unmarked) [XVIIIb, 1-{3-[3-(Cyclopentyloxy)-4-methoxyphenyl]-1H-pyrazol-1-yl}-3-(2,6-dimethylmorpholin-4-yl)propan-2-ol dihydrocloride]",PDE4D1 % inib at 10 μM,PDE4D1,77%
same,PDE4D2 % inib at 10 μM,PDE4D2,75%
same,PDE4D3 % inib at 10 μM,PDE4D3,78%
same,IC50,PDE4D3,6000 nM
same,IC50,PDE4A4,120 nM
same,PDE4A4 % inib at 10 μM,PDE4A4,52%
same,IC50,PDE4B2,460 nM
same,PDE4B2 % inib at 10 μM,PDE4B2,53.0%
same,PDE4C2 % inib at 10 μM,PDE4C2,45%
"COc1ccc(-c2cc(C(O)CN3CC(C)OC(C)C3)on2)cc1OC1CCCC1 (centres unmarked) [XVIb, 1-{3-[3-(Cyclopentyloxy)-4-methoxyphenyl]isoxazol-5-yl}-2-(2,6-dimethylmorpholin-4-yl)ethanol]",PDE4D1 % inib at 10 μM,PDE4D1,2%
same,PDE4D2 % inib at 10 μM,PDE4D2,3%
same,PDE4D3 % inib at 10 μM,PDE4D3,15%
same,PDE4A4 % inib at 10 μM,PDE4A4,0%
same,PDE4B2 % inib at 10 μM,PDE4B2,5%
same,PDE4C2 % inib at 10 μM,PDE4C2,7%
same,melting point,,92 to 94 °C
"OC(CN1CCOCC1)Cn1ccc(-c2ccc(OC(F)F)c(OC3CCCC3)c2)n1 (centres unmarked) [XXIIa, 1-{3-[3-(cyclopentyloxy)-4-(difluoromethoxy)phenyl]-1H-pyrazol-1-yl}-3-morpholin-4-ylpropan-2-ol]",PDE4A4 % inib at 10 μM,PDE4A4,11%
same,PDE4B2 % inib at 10 μM,PDE4B2,26%
same,"cytotoxicity at 24 h, 100 µM",[1],0.1 ± 0.36%
same,DNA damage (γ-H2AX),HTLA cells,not observed
same,d2 (discrimination performance),[2]; 0.0003 mg/kg,0.02 (0.05)
same,d2 (discrimination performance),[2]; 0.001 mg/kg,0.06 (0.05)
same,memory function (OLT),[2]; 0.003 mg/kg,fully enhance memory function
same,d2 (discrimination performance),"[2]; 0.003 mg/kg, p < 0.001 vs zero",0.34 (0.05) ^###
same,d2 (discrimination performance),[2]; 0.01 mg/kg,0.05 (0.03)
same,memory improvement (OLT),"[2]; 0.0003, 0.001 and 0.01 mg/kg",did not show any memory improvement at all
same,Alternations %,spatial working memory; 0.001 mg/kg,60.86 ^### %
same,Alternations %,spatial working memory; 0.003 mg/kg,63.54 ^### %
same,Alternations %,spatial working memory; 0.01 mg/kg,61.88 ^### %
same,Time anesthetized,[3]; 0.003 mg/kg,112.28%
same,Time anesthetized,[3]; 0.03 mg/kg,109.52%
same,Time anesthetized,[3]; 0.3 mg/kg,107.45%
same,emetic-like effects,"[3]; 0.003-3.0 mg/kg, one-way ANOVA n.s.",does not have emetic-like effects
same,Time anesthetized,[3]; 3.0 mg/kg,91.22%
same,basal cAMP levels,[4],without affecting the basal cAMP levels
same,AUC0-t,[5]; brain,2330 ng·h/g
same,t1/2,[5]; brain,57 min
same,AUC0-t,[5]; plasma,861 ng·h/mL
same,Cmax,[5]; plasma,993 ng/mL
same,Tmax,[5]; plasma,19.8 min
COc1ccc(-c2ccn(CCC(=O)N3CCC(O)CC3)c2)cc1OC1CCCC1 [XXIVc],PDE4D3 % inib at 10 μM,PDE4D3,29%
same,melting point,,110 to 112 °C
"COc1ccc(-c2ccn(CCC(=O)N3CCOCC3)n2)cc1OC1CCCC1 [XXIa, 4-(3-{3-[3-(cyclopentyloxy)-4-methoxyphenyl]-1H-pyrazol-1-yl}propanoyl)morpholine]",PDE4D3 % inib at 10 μM,PDE4D3,42%
same,PDE4C2 % inib at 10 μM,PDE4C2,10%
"COc1ccc(-c2ccn(CCC(=O)N3CC(C)OC(C)C3)n2)cc1OC1CCCC1 (centres unmarked) [XXIb, 4-(3-{3-[3-(cyclopentyloxy)-4-methoxyphenyl]-1H-pyrazol-1-yl}propanoyl)2,6-dimethylmorpholine]",PDE4D3 % inib at 10 μM,PDE4D3,53%
same,IC50,PDE4D3,1800 nM
same,PDE4A4 % inib at 10 μM,PDE4A4,28%
same,PDE4B2 % inib at 10 μM,PDE4B2,28%
same,PDE4C2 % inib at 10 μM,PDE4C2,42%
"COc1ccc(-c2ccn(CC(=O)N3CCOCC3)n2)cc1OC1CCCC1 [XXa, 4-({3-[3-(Cyclopentyloxy)-4-methoxyphenyl]-1H-pyrazol-1-yl}acetyl)morpholine]",PDE4D1 % inib at 10 μM,PDE4D1,42%
same,PDE4D2 % inib at 10 μM,PDE4D2,23%
same,PDE4D3 % inib at 10 μM,PDE4D3,27%
same,melting point,,131 to 132 °C
"COc1ccc(-c2ccn(CC(=O)N3CC(C)OC(C)C3)n2)cc1OC1CCCC1 (centres unmarked) [XXb, 4-({3-[3-(Cyclopentyloxy)-4-methoxyphenyl]-1H-pyrazol-1-yl}acetyl)2,6-dimethylmorpholine]",PDE4D1 % inib at 10 μM,PDE4D1,18%
same,PDE4D2 % inib at 10 μM,PDE4D2,13%
same,PDE4D3 % inib at 10 μM,PDE4D3,23%
same,melting point,,99 to 100 °C
